Literature values in PMC4369175 (Journal of photochemistry and photobiology. B, Biology, 2015).
Like-named read-outs stand apart in the source and are kept apart here.

Columns and labels:
[1] = standard value

Row | Φf of fluorescence standard ([1]; in methanol) | ΦΔ singlet oxygen quantum yield of the reference standard | SMILES | Φf of fluorescence standard ([1]; in ethanol)
1 | – | – | CC/N=c1\cc2oc3cc(NCC)c(C)cc3c(-c3ccccc3C(=O)OCC)c-2cc1C [Rhodamine 6G] | 0.95
2 | 0.03 | 0.52 | CN(C)c1ccc2nc3ccc(=[N+](C)C)cc-3sc2c1 [methylene blue] | –
